Reference: patent US5510340A, “Antihypercholesterolemic compounds and related pharmaceutical compositions and methods of use” (SRI International, priority 1992, dated 1996)

How the values were obtained:
Cholesterol Biosynthesis = experiment: In Vivo Cholesterol Biosynthesis Inhibition in Rats with Oral Administration of Test Compounds (compound 13, gavage); parameters: species or system Male Sprague-Dawley rats; conditions: rat plasma, 7 days; for 14C-Acetate Incorporation / Cholesterol Levels, HDL / 14C-Acetate Incorporation, Inhibition: gavage; for 14C-Acetate Incorporation: control 1200 ± 95; for Cholesterol Levels, HDL / Cholesterol Levels, Total: mean ± S.E.; for Cholesterol Levels, HDL: control 32 ± 2.1; for 14C-Acetate Incorporation, Inhibition: vs control; for Cholesterol Levels, Total: three daily doses via gavage, control 77.6 ± 2.3
Experimental: (b.) In Vivo Cholesterol Biosynthesis Inhibition in Rats with Oral Administration of Test Compounds:
Male Sprague-Dawley rats weighing 120 to 150 g were used. The animals were placed on a cholesterol-free diet immediately upon arrival and housed in a room with a reverse light cycle. One week after they had adapted to the light cycle, the experiment was begun by gavaging the animals three times daily with various amounts of test compound 13 suspended in 1.0 mL of saline. The control group received 1.0 mL of saline alone. On the seventh day of the experiment, sodium 1-^14 C! acetate (20 μCi/rat) was injected intraperitoneally 30 min after the oral administration (gavage) of test compounds and 2 h before the mid-dark point in the diurnal cycle; 4 h after the ^14 C-acetate injection, the animals were killed and blood samples were collected after decapitation. Plasma was obtained by centrifuging blood in an EDTA-treated centrifuge tube at 3000 rpm for 10 min. Cholesterol synthesis was measured by determining the level of ^14 C-labeled nonsaponifiable lipid present in 1.0 mL of plasma; 1.0 mL of plasma was first mixed with 1.0 mL of saline, followed by 5.0 mL of 10% KOH in absolute ethanol. Samples were saponified at 75° C. for 1 h. After cooling, 44,000 dpm, 0.5 nmol of 1,2-^3 H! cholesterol was added to each sample as an internal standard for calculating recovery through the extraction procedure. Samples were extracted once with 5 mL of petroleum ether, and the organic phase was backwashed with 5 mL of saline. The extracts were dried on a nitrogen evaporator, and the residue was reconstituted into 0.5 mL of CHCl3 -MeOH (2:1). The 0.5-mL reconstituted samples were transferred into counting vials containing 2 mL of ethanol, and both ^3 H and ^14 C were counted in 10 mL of scintillation fluid. The ^3 H-cholesterol internal standard recovery value from each sample was used to correct each sample to 100% recovery of ^14 C-cholesterol. The total cholesterol level and HDL in each plasma sample was also measured. The comparison between test groups and the control group was evaluated for both cholesterol levels and ^14 C-acetate incorporation.

[1] = system: Cholesterol Levels in Plasma of Rats; experiment: Assay for Lowering Cholesterol Levels in Rats Fed Drug-Containing Food Ad Libitum; format: in vivo, Male Sprague-Dawley rats; conditions: rat plasma, mean ± S.E.
Experimental: (d.) Assay for Lowering Cholesterol Levels in Rats Fed Drug-Containing Food Ad Libitum:
Male Sprague-Dawley rats weighing 150 to 200 g were used for this experiment. The animals were divided into groups of six rats each. All groups were kept on a cholesterol-free diet throughout the entire experiment. This diet was prepared by adding the test compound in small portions (usually 100 mg) to 100 g of choleserol-free diet in a 1-liter glass separatory funnel with a stopper. The diet was thoroughly mixed after each addition of the test compound. The resulting diet was kept in a refrigerator at all times. Before feeding, the diet was allowed to warm to room temperature. The animals were housed individually in metabolic cages. All test groups were allowed free access to the cholesterol-free diet containing the proper doses of the test compound. A pair-fed group was assigned to each test group and allowed free access to the cholesterol-free diet only in the amount consumed by its corresponding counterpart on the previous day. The control group was allowed free access to the cholesterol-free diet with no restriction. The food consumption and body weights of all groups were recorded daily. Blood samples were taken from all groups on day 0 and every third or fourth day throughout the entire experiment. Plasma was obtained by drawing blood into EDTA-treated centrifuge tubes and centrifuging at 3000 rpm for 10 min. The total cholesterol level and HDL in each plasma sample were determined using a Gemini autoanalyzer.

[2] = Day 0, cholesterol-free diet containing 0.2% inhibitor, control 29 ± 0.9
[3] = Day 0, cholesterol-free diet containing 0.2% inhibitor, control 70 ± 1
[4] = Day 4, cholesterol-free diet containing 0.2% inhibitor, control 28 ± 2
[5] = Day 4, cholesterol-free diet containing 0.2% inhibitor, control 77 ± 2
[6] = Day 7, cholesterol-free diet containing 0.2% inhibitor, control 26 ± 2
[7] = Day 7, diet containing 0.2% inhibitor, control 76 ± 4, ^b significantly lower than Day 0 (P < 0.001), pair-fed (P < 0.005) and control (P < 0.001), ^c significantly lower than pair-fed (P < 0.02)
[8] = Day 10, cholesterol-free diet containing 0.2% inhibitor, control 32 ± 1.5
[9] = Day 10, cholesterol-free diet containing 0.2% inhibitor, control 81 ± 3

CC(C)CCC[C@@H](C)[C@H]1Cc2nnc3c4c2[C@]1(C)CC[C@@H]4[C@@]1(C)CC[C@H](O)C[C@@H]1C3 [Compound 13, pyridazino 3',4',5',6':7,8,14,15!5α-cholestan-3β-ol]
14C-Acetate Incorporation (Cholesterol Biosynthesis; 0.16 mg/rat/day): 696 ± 107 cpm/ml | Cholesterol Levels, HDL (Cholesterol Biosynthesis; 0.16 mg/rat/day): 44.0 ± 10.6 Mg/100 ml | 14C-Acetate Incorporation, Inhibition (Cholesterol Biosynthesis; 0.16 mg/rat/day): 42% | Cholesterol Levels, Total (Cholesterol Biosynthesis; 0.16 mg/rat/day): 66.8 ± 3.4 Mg/100 ml | 14C-Acetate Incorporation (Cholesterol Biosynthesis; 0.33 mg/rat/day): 510 ± 122 cpm/ml | Cholesterol Levels, HDL (Cholesterol Biosynthesis; 0.33 mg/rat/day): 27.6 ± 3.5 Mg/100 ml | 14C-Acetate Incorporation, Inhibition (Cholesterol Biosynthesis; 0.33 mg/rat/day): 58% | Cholesterol Levels, Total (Cholesterol Biosynthesis; 0.33 mg/rat/day): 62.6 ± 2.4 Mg/100 ml | 14C-Acetate Incorporation (Cholesterol Biosynthesis; 1.0 mg/rat/day): 385 ± 47 cpm/ml | Cholesterol Levels, HDL (Cholesterol Biosynthesis; 1.0 mg/rat/day): 28.6 ± 1.9 Mg/100 ml | 14C-Acetate Incorporation, Inhibition (Cholesterol Biosynthesis; 1.0 mg/rat/day): 68% | Cholesterol Levels, Total (Cholesterol Biosynthesis; 1.0 mg/rat/day): 61.4 ± 3.0 Mg/100 ml | 14C-Acetate Incorporation (Cholesterol Biosynthesis; 3.0 mg/rat/day): 383 ± 38 cpm/ml | Cholesterol Levels, HDL (Cholesterol Biosynthesis; 3.0 mg/rat/day): 28.8 ± 4.3 Mg/100 ml | 14C-Acetate Incorporation, Inhibition (Cholesterol Biosynthesis; 3.0 mg/rat/day): 69% | Cholesterol Levels, Total (Cholesterol Biosynthesis; 3.0 mg/rat/day): 60.8 ± 0.9 Mg/100 ml | 14C-Acetate Incorporation (Cholesterol Biosynthesis; 7.5 mg/rat/day): 340 ± 50 cpm/ml | Cholesterol Levels, HDL (Cholesterol Biosynthesis; 7.5 mg/rat/day): 14.3 ± 0.33 Mg/100 ml | 14C-Acetate Incorporation, Inhibition (Cholesterol Biosynthesis; 7.5 mg/rat/day): 72% | Cholesterol Levels, Total (Cholesterol Biosynthesis; 7.5 mg/rat/day): 44.0 ± 1.0 Mg/100 ml | Cholesterol levels, LDL [1, 2]: 34 ± 1.8 mg/100 mL | Cholesterol Levels, Total [1, 3]: 74 ± 1 mg/100 mL | Cholesterol levels, LDL [1, 4]: 28 ± 2 mg/100 mL | Cholesterol Levels, Total [1, 5]: 62 ± 2 mg/100 mL | Cholesterol levels, LDL [1, 6]: 17 ± 3 mg/100 mL | Cholesterol Levels, Total [1, 7]: 46 ± 3 mg/100 mL | Cholesterol levels, LDL [1, 8]: 29 ± 2 mg/100 mL | Cholesterol Levels, Total [1, 9]: 47 ± 5 mg/100 mL

CC(C)CCC[C@@H](C)[C@H]1CC(=O)C2=C3CC[C@H]4C[C@@H](O)CC[C@]4(C)[C@H]3CC[C@@]21C [Compound 27, 3β-Hydroxy-5α-cholest-8(14)-ene-15-one, reference compound]
Cholesterol levels, LDL [1, 2]: 34 ± 2 mg/100 mL | Cholesterol Levels, Total [1, 3]: 74 ± 3 mg/100 mL | Cholesterol levels, LDL [1, 4]: 31 ± 2 mg/100 mL | Cholesterol Levels, Total [1, 5]: 69 ± 2 mg/100 mL | Cholesterol levels, LDL [1, 6]: 23 ± 2 mg/100 mL | Cholesterol Levels, Total [1, 7]: 48 ± 4 mg/100 mL | Cholesterol levels, LDL [1, 8]: 41 ± 1.5 mg/100 mL | Cholesterol Levels, Total [1, 9]: 66 ± 2 mg/100 mL
